Reference: US20250382308A1, “COMPOUNDS ACTIVE TOWARDS BROMODOMAINS” (NUEVOLUTION A/S, priority 2022, published 2025)

What was measured:
[1] = molecular target: first bromodomain of BRD4 (Homo sapiens (Human), UniProt O60885); assay: Bromoscan binding assay BRD4 (1); conditions: for Kd: Bromoscan, geometric mean where multiple measurements have been made; for Selectivity BRD4(2)/BRD4(1): ratio BRD4(2) Kd / BRD4(1) Kd
Procedure: (§1) Compounds were assayed for binding affinity using bromoscan assays and a phosphodiesterase three assay.
(§2) Bromoscan assays were run by DiscoveRx Corporation. The relevant assay names are BRD4 (1) for the first bromodomain of BRD4 and BRD4 (2) for the second bromodomain of BRD4. Further Bromoscan assays covering other bromodomains may be employed to establish the selectivity profile of a compound of interest. To run the Bromoscan assay, a T7 phage strain displaying the relevant bromodomain was grown in parallel in 24-well blocks in an E. coli host derived from the BL21 strain. E. coli were grown to log-phase and infected with T7 phage from a frozen stock (multiplicity of infection=0.4) and incubated with shaking at 32° C. until lysis (90-150 minutes). The lysates were centrifuged (5,000×g) and filtered (0.2 μm) to remove cell debris. […] The liganded beads were blocked with excess biotin and washed with blocking buffer (SeaBlock (Pierce), 1% BSA (bovine serum albumin), 0.05% Tween 20, 1 mM DTT (dithiothreitol)) to remove unbound ligand and to reduce non-specific phage binding. […] Test compounds were prepared as 1000× stocks in 100% DMSO and subsequently diluted 1:10 in monoethylene glycol (MEG) to create stocks at 100× the screening concentration (resulting stock solution is 10% DMSO/90% MEG). The compounds were then diluted directly into the assays such that the final concentration of DMSO and MEG were 0.1% and 0.9%, respectively. All reactions were performed in polystyrene 96-well plates in a final volume of 0.135 ml. […] The bromodomain concentration in the eluates was measured by qPCR (quantitative real-time polymerase chain reaction). Binding constants (Kds) were calculated with a standard dose-response curve using the Hill equation: Response=Blackground+((Signal-Background)/(1+Kd^Hill Slope/Dose^Hill Slope)). The Hill Slope was set to −1. Curves were fitted using a non-linear least square fit with the Levenberg-Marquardt algorithm.

[2] = molecular target: second bromodomain of BRD4 (Homo sapiens (Human), UniProt O60885); assay: Bromoscan binding assay BRD4 (2); conditions: geometric mean where multiple measurements have been made
Procedure: as §1, §2

[3] = molecular target: human recombinant phosphodiesterase (PDE3A) (Homo sapiens (Human), UniProt Q14432); assay: Radiometric PDE3A assay; format: biochemical; conditions: [3H]-cAMP hydrolysis, 20 minutes at 30° C.
Sequence of human recombinant phosphodiesterase (PDE3A) (Q14432 whole entry): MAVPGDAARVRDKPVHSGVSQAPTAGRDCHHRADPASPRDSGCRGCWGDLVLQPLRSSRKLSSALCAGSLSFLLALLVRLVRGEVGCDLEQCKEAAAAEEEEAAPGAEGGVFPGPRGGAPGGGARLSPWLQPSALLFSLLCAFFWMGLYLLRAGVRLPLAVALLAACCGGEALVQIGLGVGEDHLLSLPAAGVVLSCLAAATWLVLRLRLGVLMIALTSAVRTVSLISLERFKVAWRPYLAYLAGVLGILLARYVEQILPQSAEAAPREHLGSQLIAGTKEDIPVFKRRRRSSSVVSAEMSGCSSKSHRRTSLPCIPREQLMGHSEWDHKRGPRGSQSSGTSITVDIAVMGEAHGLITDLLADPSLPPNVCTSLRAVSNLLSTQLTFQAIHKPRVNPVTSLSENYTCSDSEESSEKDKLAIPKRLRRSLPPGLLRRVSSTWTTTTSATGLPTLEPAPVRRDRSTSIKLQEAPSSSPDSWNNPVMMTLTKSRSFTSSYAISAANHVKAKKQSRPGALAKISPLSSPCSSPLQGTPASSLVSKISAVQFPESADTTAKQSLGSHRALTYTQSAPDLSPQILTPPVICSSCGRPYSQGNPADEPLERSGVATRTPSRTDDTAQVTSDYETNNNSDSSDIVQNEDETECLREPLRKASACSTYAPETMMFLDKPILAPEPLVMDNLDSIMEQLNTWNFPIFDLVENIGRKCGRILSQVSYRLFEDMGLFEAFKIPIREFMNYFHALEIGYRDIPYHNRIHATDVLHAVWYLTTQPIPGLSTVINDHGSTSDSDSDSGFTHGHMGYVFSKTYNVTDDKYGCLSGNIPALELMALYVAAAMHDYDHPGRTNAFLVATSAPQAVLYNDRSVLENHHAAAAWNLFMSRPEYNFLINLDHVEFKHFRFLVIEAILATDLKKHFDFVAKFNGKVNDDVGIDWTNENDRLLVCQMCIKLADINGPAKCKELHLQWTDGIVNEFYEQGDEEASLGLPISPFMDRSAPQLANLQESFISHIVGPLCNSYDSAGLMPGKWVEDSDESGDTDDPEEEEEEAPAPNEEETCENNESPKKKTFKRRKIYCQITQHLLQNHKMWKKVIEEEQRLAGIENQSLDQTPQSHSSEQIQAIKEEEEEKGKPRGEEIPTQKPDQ
Procedure: Partially purified human recombinant phosphodiesterase (PDE3A) was obtained by cloning cDNA and expressing in S. frugiperda insect cells using a baculovirus expression system. Cells were harvested from culture by centrifuging at 400×g for 5 minutes. Cell pellet was resuspended in 20 ml of RIPA Buffer (150 mM NaCl, 10 mM Tris, 0.1% NP-40, pH8.3), 4 ml/200 ml of culture, plus protease inhibitors (100 μl/10 ml) and incubated on ice for 10-20 minutes then spun at 3500×g for 10 minutes at 4° C. Supernatant was kept and the pellet thrown away. Tritium-labeled cyclic AMP was hydrolysed to 5′-AMP by PDE3A. The 5′-AMP was then further hydrolysed to adenosine by nucleotidase in snake venom. An anion-exchange resin binds all charged nucleotides and leaves [3H]adenosine as the only labeled compound to be counted by liquid scintillation. The radiometric assay method is a modification of the two-step method of Thompson and Appleman [Biochemistry 10; 311-316; 1971], adapted for a 96 well plate format. 50 μl of diluted PDE3A was incubated with 50 μl of [3H]-CAMP (specific activity 25 Ci/mmol) and 11 μl of 50% DMSO (or compound dilution) for 20 minutes at 30° C. The enzyme was diluted in 20 mM Tris HCl pH7.4 (×2.2 final concentration) and [3H]-cAMP were diluted in 10 mM MgCl2, 40 mM Tris HCl pH 7.4 (×2.2 final concentration). Reactions were carried out in Greiner 96 deep well 1 ml master-block. The plates were centrifuged for 9 seconds before the 20 minutes incubation. The reaction was terminated by denaturing the PDE enzyme (at 70° C. for 2 minutes, plates were left to cool on ice for 10 minutes) after which 25 μl snake venom nucleotidase (225 ug/ml final concentration) was added and incubated for 10 minutes (at 30° C.), plates were centrifuged for 9 seconds before incubation. After incubation 200 μl Dowex resin (1×8, 200-400 mesh) was added and the plate was shaken for 20 minutes then centrifuged for 3 minutes at 1000×g. 50 μl of supernatant was removed and added to 200 μl of MicroScint-20 in white plates (Greiner 96-well Optiplate) and shaken for 30 minutes before reading on Perkin Elmer TopCount Scintillation Counter. GraphPad Prism™ was used to calculate the IC50 values using a sigmoidal dose response (variable slope). The analysis measures 4 parameters including the best fit values for the bottom and top fit of the curve, the hill slope value and the IC50 value.

SMILES	Kd [1] [nM]	Selectivity BRD4(2)/BRD4(1) [1]	Kd [2] [nM]	IC50 [3] [nM]
CCOc1cc(NC(=O)c2cc3c(nc2N2CCOCC2)COC3)cc2c(C)cc(=O)[nH]c12 [Example 12, N-(8-ethoxy-4-methyl-2-oxo-1H-quinolin-6-yl)-2-morpholino-5,7-dihydrofuro[3,4-b]pyridine-3-carboxamide]	87	93	8100	> 10000
COc1cc(NC(=O)c2cc3c(nc2N2C[C@H](F)[C@@H](F)C2)COC3)cc2c(C)cc(=O)[nH]c12 (racemic) [Example 43, N-(8-methoxy-4-methyl-2-oxo-1H-quinolin-6-yl)-2-[rac-(3S,4S)-3,4-difluoropyrrolidin-1-yl]-5,7-dihydrofuro[3,4-b]pyridine-3-carboxamide]	18	22	400	> 10000
COc1cc(NC(=O)c2cc3c(nc2N2C4CCC2COC4)COC3)cc2c(C)cc(=O)[nH]c12 [Example 17, N-(8-methoxy-4-methyl-2-oxo-1H-quinolin-6-yl)-2-(3-oxa-8-azabicyclo[3.2.1]octan-8-yl)-5,7-dihydrofuro[3,4-b]pyridine-3-carboxamide]	25	44	1100	> 10000
Cc1c(NC(=O)c2cc3c(nc2N2CCOCC2)COC3)cc2c(C)cc(=O)[nH]c2c1C [Example 13, 2-morpholino-N-(4,7,8-trimethyl-2-oxo-1H-quinolin-6-yl)-5,7-dihydrofuro[3,4-b]pyridine-3-carboxamide]	280	>35	> 10000	> 10000
COc1cc(NC(=O)c2cc3c(nc2C2=CCOCC2)COC3)cc2c(C)cc(=O)[nH]c12 [Example 2, 2-(3,6-dihydro-2H-pyran-4-yl)-N-(8-methoxy-4-methyl-2-oxo-1H-quinolin-6-yl)-5,7-dihydrofuro[3,4-b]pyridine-3-carboxamide]	64	41	2600	> 10000
COc1cc(NC(=O)c2cc3c(nc2N2CCOCC2)CNC3)cc2c(C)cc(=O)[nH]c12 [Example 1, N-(8-methoxy-4-methyl-2-oxo-1H-quinolin-6-yl)-2-morpholino-6,7-dihydro-5H-pyrrolo[3,4-b]pyridine-3-carboxamide]	8	75	600	> 10000
COc1cc(NC(=O)c2cc3c(nc2N2CC[C@H](F)C2)COC3)cc2c(C)cc(=O)[nH]c12 [Example 41, 2-[(3S)-3-fluoropyrrolidin-1-yl]-N-(8-methoxy-4-methyl-2-oxo-1H-quinolin-6-yl)-5,7-dihydrofuro[3,4-b]pyridine-3-carboxamide]	92	>109	> 10000	> 10000
Cc1cc(=O)[nH]c2c(OCCO)cc(NC(=O)c3cc4c(nc3N3CCOCC3)COC4)cc12 [Example 36, N-[8-(2-hydroxyethoxy)-4-methyl-2-oxo-1H-quinolin-6-yl]-2-morpholino-5,7-dihydrofuro[3,4-b]pyridine-3-carboxamide]	27	15	400	> 10000
COc1cc(NC(=O)c2cc3c(nc2N(C)CC2CC2)COC3)cc2c(C)cc(=O)[nH]c12 [Example 26, 2-[cyclopropylmethyl(methyl)amino]-N-(8-methoxy-4-methyl-2-oxo-1H-quinolin-6-yl)-5,7-dihydrofuro[3,4-b]pyridine-3-carboxamide]	51	61	3100	> 10000
COc1cc(NC(=O)c2cc3c(nc2N2CCOCC2)CCC3)cc2c(C)cc(=O)[nH]c12 [Example 29, N-(8-methoxy-4-methyl-2-oxo-1H-quinolin-6-yl)-2-morpholino-6,7-dihydro-5H-cyclopenta[b]pyridine-3-carboxamide]	18	106	1900	> 10000
Cc1cc(=O)[nH]c2c(C)cc(NC(=O)c3cc4c(nc3N3CCOCC3)COC4)cc12 [Example 7, N-(4,8-dimethyl-2-oxo-1H-quinolin-6-yl)-2-morpholino-5,7-dihydrofuro[3,4-b]pyridine-3-carboxamide]	40	178	7100	> 10000
Cc1cc2[nH]c(=O)cc(C)c2cc1NC(=O)c1cc2c(nc1N1CCOCC1)COC2 [Example 11, N-(4,7-dimethyl-2-oxo-1H-quinolin-6-yl)-2-morpholino-5,7-dihydrofuro[3,4-b]pyridine-3-carboxamide]	90	>111	> 10000	7000
COc1cc(NC(=O)c2cc3c(nc2N2CCC[C@H]2C)COC3)cc2c(C)cc(=O)[nH]c12 [Example 18, N-(8-methoxy-4-methyl-2-oxo-1H-quinolin-6-yl)-2-[(2R)-2-methylpyrrolidin-1-yl]-5,7-dihydrofuro[3,4-b]pyridine-3-carboxamide]	12	17	200	–
COc1cc(NC(=O)c2cc3c(nc2N2CC[C@@H](F)C2)COC3)cc2c(C)cc(=O)[nH]c12 [Example 40, 2-[(3R)-3-fluoropyrrolidin-1-yl]-N-(8-methoxy-4-methyl-2-oxo-1H-quinolin-6-yl)-5,7-dihydrofuro[3,4-b]pyridine-3-carboxamide]	11	14	150	–
COc1cc2[nH]c(=O)cc(C)c2cc1NC(=O)c1cc2c(nc1N1CCOCC1)COC2 [Example 14, N-(7-methoxy-4-methyl-2-oxo-1H-quinolin-6-yl)-2-morpholino-5,7-dihydrofuro[3,4-b]pyridine-3-carboxamide]	26	15	400	–
COc1cc(NC(=O)c2cc3c(nc2N2C[C@H]4C[C@@H]2CO4)COC3)cc2c(C)cc(=O)[nH]c12 [Example 24, N-(8-methoxy-4-methyl-2-oxo-1H-quinolin-6-yl)-2-[(1R,4R)-2-oxa-5-azabicyclo[2.2.1]heptan-5-yl]-5,7-dihydrofuro[3,4-b]pyridine-3-carboxamide]	–	–	–	> 10000
COc1cc(NC(=O)c2cc3c(nc2N2CC4CC2(C)C4)COC3)cc2c(C)cc(=O)[nH]c12 [Example 4, N-(8-methoxy-4-methyl-2-oxo-1H-quinolin-6-yl)-2-(1-methyl-2-azabicyclo[2.1.1]hexan-2-yl)-5,7-dihydrofuro[3,4-b]pyridine-3-carboxamide]	29	>172	> 5000	–
COc1cc(NC(=O)c2cc3c(nc2N2CCOCC2)CN(C2COC2)C3)cc2c(C)cc(=O)[nH]c12 [Example 33, N-(8-methoxy-4-methyl-2-oxo-1H-quinolin-6-yl)-2-morpholino-6-(oxetan-3-yl)-5,7-dihydropyrrolo[3,4-b]pyridine-3-carboxamide]	13	23	300	–
